According to patent US10456550B2, “Device and method for controlling respiration during sleep” (Yeda Research and Development Co. Ltd., priority 2010, dated 2019):

Experiments:
healthy subjects [1] = test: Arousal and wake-up frequency after odorant presentation during sleep (polysomnography); assay type: in vivo, human; settings: odor vs clean-air baseline, across sleep stages; 5-20 s stimuli, 50% odor concentration
Description: (§1) Odorants were delivered with a computer-controlled air dilution olfactometer built according to principals described in Sobel et al. 1997; Johnson and Sobel 2007 which are incorporated herein by reference. Room air (3 Liter per minute) was mixed with the odorized air (3 liter per minute), resulting in odor concentration of 50%. The odorant line culminated at a small nasal mask that was subserved by a vacuum line pulling at the same rate of airflow. This provided an odor environment at the nose where odorant onset and offset occurred within 2 and 260 ms, respectively, with no visual, auditory, tactile, humidity, or thermal cues as to the alteration. In other words, the odorant stimulus was not a puff of air but rather a block of odorant embedded within an airflow that was constant for the duration of the study. The olfactometer itself was located in a room adjacent to the sleep room, and only the airflow tubing crossed into the sleep room via a wave guide within the stainless steel-coated wall. This provided additional separation from any possible visual or auditory stimulation associated with the olfactometer (e.g., LEDs on its front panel, etc.).
Physiological measurements were recorded using a Power-Lab 16SP Monitoring System (ADInstruments) running off a Macintosh G4 computer using a sampling rate of 1000 Hz and a 50-Hz notch filter to remove electrical artifacts. For all measures dependent on electrodes, the scalp surface was cleaned with mild abrasive gel (Nuprep gel, Aurora) in order to assist in lowering impedance at the electrode site. For pasted to electrodes on the rest of the body, the skin surface was also first cleaned with alcohol. The following measures were recorded:
Electroencephalogram (EEG) was obtained through 2 circular electrodes ([…]) that were located at positions C3 and C4 according to the 10-20 system and were referenced to electrodes on the opposite mastoids (A2 and A1, respectively). Signals were amplified using a preamplifier (Octal Bio Amp ML138, ADInstruments).
Electromyogram (EMG) was obtained through 2 circular Ag/AgCl conductive adhesive electrodes (0.9 cm diameter). The electrodes were located bilaterally adjacent to the submentalis muscles. Signals were amplified using a preamplifier (Octal Bio Amp ML138, ADInstruments). […]
Blood oxygination (SpO2) was measured with an oxymeter (MLT321 SpO2 Finger Clip Sensor, ADInstruments) embedded within a finger clip placed on the left index finger.
Sleep stages were scored off-line according to the R and K criteria (Rechtschaffen and Kales 1968). […]
The experimenters observed the real-time polysomnography reading, and 20 min after they determined that the subject had entered stage 2 sleep, they initiated the experimental protocol that from this point on was computer controlled. […]

healthy subjects [2] = test: Respiration (inhale/exhale volume) after odorant presentation during sleep; assay type: in vivo, human; settings: for inhale/exhale volume ratio following odor presentation in comparison to baseline: nasal respiration, across all sleep stages; for difference in respiration volume ratio across sleep stages: repeated measures ANOVA between sleep stages
Description: as §1
Overall respiration was computed as a reflection of changes in thoracic respiration and abdominal respiration circumference measured using 2 piezoelectric respiratory belt transducers (1132 Pneumotrace II, UFI).
Nasal and Oral respiration was measured using separate pneumotachometers (high-sensitivity flowmeter model #4719, Hans Rudolph, Inc.) that were attached in line with the vent ports of the mask. The pneumotachometer differential pressure was measured and converted to a voltage signal using a spirometer (ML141, ADInstruments) that delivered the voltage to the instrumentation amplifier.
The effects of odorants on 4 breath parameters were tested: breath mean airflow velocity, breath maximum airflow velocity, breath volume, and breath duration. Breath volume was calculated by the trapezoidal Reimann sum method (Johnson et al. 2006). Breaths were aligned in time by setting the point at which the breath passed from the expiratory phase to the inspiratory phase as time 0.
The experimenters observed the real-time polysomnography reading, and 20 min after they determined that the subject had entered stage 2 sleep, they initiated the experimental protocol that from this point on was computer controlled. Every 9, 12, or 15 min (randomized), the olfactometer generated a 5-, 10-, or 20-s (randomized) odor stimulus. […] Upon spontaneous morning wake-up, subjects again rated the intensity and pleasantness of the odorant and were then debriefed, paid, and released.
Averages of respiration measurements for inhalation, exhalation, and inhalation/exhalation ratio in the 30 breaths before odor onset were compared with the averages of respiration measurements for inhalation, exhalation, and inhalation/exhalation ratio for each one of 6 breaths after odor onset across sleep stages per odorant and for all odorants together. This analysis was corrected for the 6 comparisons using a Bonferroni correction. Respiratory measurements were compared between sleep stages per odorant in a repeated measures ANOVA.
The second alternative is that, although oral respiration typically reflects only; 4% of overall respiration in sleep (Fitzpatrick et al. 2003), the odorant may have changed the balance between nasal and oral breathing such that oral inspiration increased. Under this scenario, the increase in nasal exhalation reflected an increase in oral inspiration rather than the exhalation of air stored in the lungs. The above data could not discriminate between these alternatives because it relied on accurate measurement of nasal respiration alone. An additional control group of 10 subjects were studied using the odorant vetiver oil that in addition to the nasal mask were fitted with an oral mask in order to accurately measure oral and nasal respiration simultaneously.

8-day-old rats = settings: cited from earlier work
humans = settings: selective trigeminal irritant during nocturnal sleep; cited from earlier work
[3] = first breath after dispersion, worded 'may' in the description

Structure (SMILES) | effect of odor on arousal frequency (healthy subjects [1]) | effect of odor on wake-up frequency (healthy subjects [1]) | inhale/exhale volume ratio following odor presentation in comparison to baseline (healthy subjects [2]) | difference in respiration volume ratio across sleep stages (healthy subjects [2]) | also measured
COc1cc(C=O)ccc1O [vanillin] | no effect of odor on arousal | no effect of odor on wake-up | significantly smaller | no difference | decrease of inhalation volume (healthy subjects [2]; [3]): about 23%; increase of exhalation volume (healthy subjects [2]; [3]): about 6%; reduction of nasal inhalation/exhalation volume ratio (healthy subjects [2]; first breath after odor onset, worded 'may' in the description): about 27%; reduction of nasal inhalation/exhalation volume ratio (healthy subjects [2]; sixth breath after odor onset, worded 'may' in the description): about 5%
CSSC [DMDS, dimethyl disulfide] |  |  |  |  | sniffing during sleep (8-day-old rats; 8-day-old rats presented with odorant): sniffing, including polypnea, occurred while the rats were asleep; arousal responses (8-day-old rats; sleeping 8-day-old rats): did not evoke reliable arousal responses
[NH4+].[NH4+].[S-2] [ammonium sulfide] | no effect of odor | no effect of odor on wake-up | significantly smaller | no difference | 
O=C=O [CO2] |  |  |  |  | arousal frequency (humans): concentration-dependent increase in arousal frequency
